Converted amounts (≈) assume the structure as drawn.
System: Mycobacterium tuberculosis
Test: Antimycobacterial activity against Mycobacterium tuberculosis H37Rv by MABA method
Type: functional

Row | Structure (SMILES) | MIC99
1 | COc1ccc(CCN(CCCC(C#N)(c2ccc(OC)c(OC)c2)C(C)C)C2CC2)cc1OC (stereo not drawn) | 125 µM (≈ 60.1 µg/mL)
2 | CCN(CCCC(C#N)(c1ccc(OC)c(OC)c1)C(C)C)CCc1ccc(OC)c(OC)c1 (stereo not drawn) | 1000 µM (≈ 469 µg/mL)
3 | CCCN(CCCC(C#N)(c1ccc(OC)c(OC)c1)C(C)C)CCc1ccc(OC)c(OC)c1 (stereo not drawn) | 500 µM (≈ 241 µg/mL)
4 | COc1ccc(CCN(CCCC(C#N)(c2ccc(OC)c(OC)c2)C(C)C)Cc2ccccc2)cc1OC (stereo not drawn) | 1000 µM (≈ 531 µg/mL)
5 | COc1ccc(N(C)CCCC(C#N)(c2ccc(OC)c(OC)c2)C(C)C)cc1OC (stereo not drawn) | 1000 µM (≈ 427 µg/mL)
6 | COc1ccc(CN(C)CCCC(C#N)(c2ccc(OC)c(OC)c2)C(C)C)cc1OC (stereo not drawn) | 1000 µM (≈ 441 µg/mL)
7 | COc1ccc(C(C#N)(CCCN2CCCCC2)C(C)C)cc1OC (stereo not drawn) | 1000 µM (≈ 344 µg/mL)
8 | COc1ccc(C(C#N)(CCCN2CCOCC2)C(C)C)cc1OC (stereo not drawn) | 1000 µM (≈ 346 µg/mL)
9 | COc1ccc(C(C#N)(CCCN2CCC(O)CC2)C(C)C)cc1OC (stereo not drawn) | 1000 µM (≈ 360 µg/mL)
10 | COc1ccc(C(C#N)(CCCN2CCC(N3CCCCC3)CC2)C(C)C)cc1OC (stereo not drawn) | 500 µM (≈ 214 µg/mL)
11 | COc1ccc(C(C#N)(CCCN2CCC(O)(c3ccccc3)CC2)C(C)C)cc1OC (stereo not drawn) | 250 µM (≈ 109 µg/mL)
12 | COc1ccc(C(C#N)(CCCN2CCN(c3ccccc3)CC2)C(C)C)cc1OC (stereo not drawn) | 250 µM (≈ 105 µg/mL)
13 | COc1ccc(C(C#N)(CCCN2CCN(c3ccccn3)CC2)C(C)C)cc1OC (stereo not drawn) | 250 µM (≈ 106 µg/mL)
14 | COc1ccc(C(C#N)(CCCN2CCN(c3ccccc3F)CC2)C(C)C)cc1OC (stereo not drawn) | 62.5 µM (≈ 27.5 µg/mL)
15 | COc1ccc(CCN(C)CCCC(C#N)c2ccc(OC)c(OC)c2)cc1OC (stereo not drawn) | 1000 µM (≈ 413 µg/mL)
16 | COc1ccc(CCN(C)CCCC(C)(C#N)c2ccc(OC)c(OC)c2)cc1OC (stereo not drawn) | 1000 µM (≈ 427 µg/mL)
17 | CCC(C#N)(CCCN(C)CCc1ccc(OC)c(OC)c1)c1ccc(OC)c(OC)c1 (stereo not drawn) | 1000 µM (≈ 441 µg/mL)
18 | CCCC(C#N)(CCCN(C)CCc1ccc(OC)c(OC)c1)c1ccc(OC)c(OC)c1 (stereo not drawn) | 500 µM (≈ 227 µg/mL)
19 | COc1ccc(CCN(C)CCCC(C#N)(c2ccc(OC)c(OC)c2)C2CCCC2)cc1OC (stereo not drawn) | 125 µM (≈ 60.1 µg/mL)
20 | COc1ccc(CCN(C)CCCC(C#N)(c2ccc(OC)c(OC)c2)C2CCCCC2)cc1OC (stereo not drawn) | 62.5 µM (≈ 30.9 µg/mL)
21 | COc1ccc(CCNCCCC(C#N)(c2ccc(OC)c(OC)c2)C(C)C)cc1OC (stereo not drawn) [NORVERAPAMIL] | 500 µM (≈ 220 µg/mL)
22 | CO[C@H]1/C=C/O[C@@]2(C)Oc3c(C)c(O)c4c(O)c(c(/C=N/N5CCN(C)CC5)c(O)c4c3C2=O)NC(=O)/C(C)=C\C=C\[C@H](C)[C@H](O)[C@@H](C)[C@@H](O)[C@@H](C)[C@H](OC(C)=O)[C@@H]1C [RIFAMPIN] | 0.0083 µM (≈ 0.00683 µg/mL)
23 | COc1ccc(CCN(C)CCCC(C#N)(c2ccc(OC)c(OC)c2)C(C)C)cc1OC (stereo not drawn) [VERAPAMIL] | 500 µM (≈ 227 µg/mL)

Source: ChEMBL document CHEMBL3352715, “Synthesis of new verapamil analogues and their evaluation in combination with rifampicin against Mycobacterium tuberculosis and molecular docking studies in the binding site of efflux protein Rv1258c” (2014)
